In PMC11232109, “Synthesis, anticancer evaluation of novel hybrid pyrazole-based chalcones, molecular docking, DNA fragmentation, and gene expression: in vitro studies” (RSC Advances, 2024):

How the values were obtained:
Assay type in all cases: cell-based
[1] = MTT assay, normal cell line BJ1; details: human, BJ1 normal skin fibroblasts, at 100 μg ml^−1, 48 hours, read-out: (%) Mortality of BJ1
Procedure: (§1) The percentage of the cell viability treated with the newly synthesized compounds was evaluated using MTT assay (3-(4,5-dimethylthiazol-2-yl)-2,5-diphenyl tetrazolium bromide). All the subsequent steps were done in a sterile Laminar flow class II biosafety cabinet (Baker, SG406INT, Sanford, ME, USA). DMEM was used as a suspension medium for breast cancer (MCF7), prostate cancer (PC3), and pancreatic cancer (PACA2), while normal cell line (BJ1) was suspended in DMEM-F12 medium, a 1% antibiotic-antimycotic mixture (10 000 U ml^−1 potassium penicillin, 10 000 μg ml^−1 streptomycin sulfate, and 25 μg ml^−1 amphotericin B), and 1% L-glutamine at 37 °C under 5% CO2.
(§2) Cells were cultured for 10 days and then seeded at a concentration of 10 × 10^4 cells per well in fresh complete growth medium in 96-well microtiter plastic plates at 37 °C for 24 hours under 5% CO2 using a water-jacketed carbon dioxide incubator (Sheldon, TC2323). Media were aspirated, serum-free fresh medium was added, and cells were incubated either alone (negative control) or with different concentrations of the synthesized chalcone derivatives to a final concentration of (100–50–25–12.5–6.25–3.125–0.78 and 1.56 μg ml^−1). After incubation for 48 hours, the medium was aspirated and 40 μl of MTT salt ([…]) was added to each well and incubated for another four hours at 37 °C under 5% CO2. To stop the reaction and dissolve the formed crystals, 200 μl of 10% sodium dodecyl sulfate (SDS) in deionized water was added to each well and incubated overnight at 37 °C.
(§3) The absorbance was then measured at 595 nm and a reference wavelength of 620 nm using a microplate multi-well reader (Bio-Rad Laboratories Inc., model 3350). Statistical significance was tested between the samples and the negative control (cells with vehicle) using an independent t-test using the SPSS 11 program. DMSO was the vehicle used for the dissolution of the synthesized chalcones, and its final concentration on the cells was less than 0.2%. The percentage of change in viability was calculated according to the formula: ((reading of extract/reading of negative control) − 1) × 100. A Probit analysis was carried out for the determination of IC50 using the SPSS 11 program.

[2] = test system: PACA2 (pancreatic carcinoma); assay: MTT assay, PACA2; details: Homo sapiens, PaCa-2, 48 h, MTT, read-out: (%) Mortality of PACA2; for cytotoxicity at 100 µg/mL: at 100 μg ml^−1, 48 hours
Procedure: as §1, §2, §3

PC3 (prostatic cancer) = assay: MTT assay, PC3; details: Homo sapiens, 48 h, MTT, read-out: (%) Mortality of PC3; for cytotoxicity at 100 µg/mL: at 100 μg ml^−1, 48 hours
Procedure: as §1, §2, §3

[3] = test system: MCF7 (human breast adenocarcinoma); assay: MTT assay, MCF7; details: Homo sapiens, MTT; for cytotoxicity at 100 µg/mL: at 100 μg ml^−1, 48 hours
Procedure: as §1, §2, §3

[4] = test system: BJ1 (normal skin fibroblasts); assay: MTT assay, normal cell line BJ1; details: Skin fibroblast, 48 hours
Procedure: as §1, §2, §3

[5] = MCF7, 48 h, read-out: (%) Mortality of MCF7

| IC50 ([3]; MCF7, 48 hours) [µM] | SMILES | cytotoxicity at 48 h, 100 μg ml^−1 [1] [%] | cytotoxicity at 100 µg/mL [2] [%] | cytotoxicity at 100 µg/mL (PC3 (prostatic cancer)) [%] | cytotoxicity at 100 µg/mL [3, 5] [%] | IC50 [4] [µM] | cytotoxicity at 6.25 µg/mL ([2]; up to 6.25 μg ml^−1, 48 hours) [%] | cytotoxicity at 6.25 µg/mL (PC3 (prostatic cancer); up to 6.25 μg ml^−1, 48 hours) [%] | cytotoxicity at 6.25 µg/mL ([3]; MCF7, 48 h, up to 6.25 μg ml^−1, 48 hours, read-out: (%) Mortality of MCF7) [%] |
| --- | --- | --- | --- | --- | --- | --- | --- | --- | --- |
| 72.3 ± 0.34 | Cc1c(C(=O)C=Cc2ccco2)c(-c2cccs2)nn1-c1ccc([N+](=O)[O-])cc1 [Compound 7a, 3-(Furan-2-yl)-1-(5-methyl-1-(4-nitrophenyl)-3-(thiophen-2-yl)-1H-pyrazol-4-yl)prop-2-en-1-one] | 11.2 ± 0.48 | 17.3 ± 0.13 | 3.8 ± 0.65 | 63.5 ± 0.11 |  |  |  |  |
|  | Cc1c(C(=O)C=Cc2ccncc2)c(-c2cccs2)nn1-c1ccc([N+](=O)[O-])cc1 [Compound 7c, 1-(5-Methyl-1-(4-nitrophenyl)-3-(thiophen-2-yl)-1H-pyrazol-4-yl)-3-(pyridin-4-yl)prop-2-en-1-one] | 52.3 ± 0.76 |  |  |  | 86.2 ± 0.22 | 100 | 100 | 100 |
|  | Cc1c(C(=O)C=Cc2nn(-c3ccccc3)cc2-c2cccs2)c(-c2cccs2)nn1-c1ccc([N+](=O)[O-])cc1 [Compound 9f, 1-(5-Methyl-1-(4-nitrophenyl)-3-(thiophen-2-yl)-1H-pyrazol-4-yl)-3-(1-phenyl-4-(thiophen-2-yl)-1H-pyrazol-3-yl)prop-2-en-1-one] |  | 16.5 ± 0.35 | 4.5 ± 0.23 | 80.4 ± 0.25 |  |  |  |  |
|  | Cc1c(C(=O)C=Cc2nn(-c3ccccc3)cc2-c2ccccc2)c(-c2cccs2)nn1-c1ccc([N+](=O)[O-])cc1 [Compound 9a, 3-(1,4-Diphenyl-1H-pyrazol-3-yl)-1-(5-methyl-1-(4-nitrophenyl)-3-(thiophen-2-yl)-1H-pyrazol-4-yl)prop-2-en-1-one] |  | 50.3 ± 0.42 | 4.5 ± 0.26 | 42.3 ± 0.21 |  |  |  |  |
|  | Cc1c(C(=O)C=Cc2nn(-c3ccccc3)cc2-c2ccc(Cl)cc2)c(-c2cccs2)nn1-c1ccc([N+](=O)[O-])cc1 [Compound 9d, 3-(4-(4-Chlorophenyl)-1-phenyl-1H-pyrazol-3-yl)-1-(5-methyl-1-(4-nitrophenyl)-3-(thiophen-2-yl)-1H-pyrazol-4-yl)prop-2-en-1-one] |  | 54.5 ± 0.84 | 3.5 ± 0.92 | 44.2 ± 0.33 |  |  |  |  |
|  | Cc1ccc(-c2cn(-c3ccccc3)nc2C=CC(=O)c2c(-c3cccs3)nn(-c3ccc([N+](=O)[O-])cc3)c2C)cc1 [Compound 9b, 1-(5-Methyl-1-(4-nitrophenyl)-3-(thiophen-2-yl)-1H-pyrazol-4-yl)-3-(1-phenyl-4-(p-tolyl)-1H-pyrazol-3-yl)prop-2-en-1-one] |  | 39.5 ± 0.91 | 27.2 ± 0.31 | 44.5 ± 0.74 |  |  |  |  |
|  | Cc1c(C(=O)C=Cc2cccs2)c(-c2cccs2)nn1-c1ccc([N+](=O)[O-])cc1 [Compound 7b, 1-(5-Methyl-1-(4-nitrophenyl)-3-(thiophen-2-yl)-1H-pyrazol-4-yl)-3-(thiophen-2-yl)prop-2-en-1-one] |  | 32.5 ± 0.74 | 4.2 ± 0.73 | 45.3 ± 0.98 |  |  |  |  |
|  | COc1ccc(-c2cn(-c3ccccc3)nc2C=CC(=O)c2c(-c3cccs3)nn(-c3ccc([N+](=O)[O-])cc3)c2C)cc1 [Compound 9c, 3-(4-(4-Methoxyphenyl)-1-phenyl-1H-pyrazol-3-yl)-1-(5-methyl-1-(4-nitrophenyl)-3-(thiophen-2-yl)-1H-pyrazol-4-yl)prop-2-en-1-one] |  | 19.8 ± 0.68 | 2.9 ± 0.57 | 25.2 ± 0.41 |  |  |  |  |
